We go through 23 compounds from US8283361B2 (AstraZeneca AB, priority 2008, dated 2012).

Structures are written as SMILES.

Chain of S. aureus GyrB ATPase (P0A0K8 whole entry): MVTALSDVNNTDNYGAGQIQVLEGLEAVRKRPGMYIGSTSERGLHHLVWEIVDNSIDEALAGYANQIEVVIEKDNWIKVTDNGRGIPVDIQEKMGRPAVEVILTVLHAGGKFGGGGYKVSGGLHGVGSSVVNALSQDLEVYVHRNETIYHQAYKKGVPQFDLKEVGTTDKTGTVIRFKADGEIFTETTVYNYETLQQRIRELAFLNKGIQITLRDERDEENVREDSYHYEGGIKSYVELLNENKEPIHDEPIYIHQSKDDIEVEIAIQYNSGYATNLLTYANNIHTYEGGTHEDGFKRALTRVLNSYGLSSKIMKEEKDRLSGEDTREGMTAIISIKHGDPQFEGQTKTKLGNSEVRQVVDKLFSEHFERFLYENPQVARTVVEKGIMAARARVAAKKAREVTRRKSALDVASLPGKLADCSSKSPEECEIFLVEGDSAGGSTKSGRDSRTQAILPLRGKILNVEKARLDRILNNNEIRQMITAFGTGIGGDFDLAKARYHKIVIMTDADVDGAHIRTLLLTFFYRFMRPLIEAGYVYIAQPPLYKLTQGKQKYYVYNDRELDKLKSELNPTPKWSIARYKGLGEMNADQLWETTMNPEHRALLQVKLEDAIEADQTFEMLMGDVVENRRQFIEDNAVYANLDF
Chain of S. aureus GyrB ATPase (P0AES4 whole entry, further chain): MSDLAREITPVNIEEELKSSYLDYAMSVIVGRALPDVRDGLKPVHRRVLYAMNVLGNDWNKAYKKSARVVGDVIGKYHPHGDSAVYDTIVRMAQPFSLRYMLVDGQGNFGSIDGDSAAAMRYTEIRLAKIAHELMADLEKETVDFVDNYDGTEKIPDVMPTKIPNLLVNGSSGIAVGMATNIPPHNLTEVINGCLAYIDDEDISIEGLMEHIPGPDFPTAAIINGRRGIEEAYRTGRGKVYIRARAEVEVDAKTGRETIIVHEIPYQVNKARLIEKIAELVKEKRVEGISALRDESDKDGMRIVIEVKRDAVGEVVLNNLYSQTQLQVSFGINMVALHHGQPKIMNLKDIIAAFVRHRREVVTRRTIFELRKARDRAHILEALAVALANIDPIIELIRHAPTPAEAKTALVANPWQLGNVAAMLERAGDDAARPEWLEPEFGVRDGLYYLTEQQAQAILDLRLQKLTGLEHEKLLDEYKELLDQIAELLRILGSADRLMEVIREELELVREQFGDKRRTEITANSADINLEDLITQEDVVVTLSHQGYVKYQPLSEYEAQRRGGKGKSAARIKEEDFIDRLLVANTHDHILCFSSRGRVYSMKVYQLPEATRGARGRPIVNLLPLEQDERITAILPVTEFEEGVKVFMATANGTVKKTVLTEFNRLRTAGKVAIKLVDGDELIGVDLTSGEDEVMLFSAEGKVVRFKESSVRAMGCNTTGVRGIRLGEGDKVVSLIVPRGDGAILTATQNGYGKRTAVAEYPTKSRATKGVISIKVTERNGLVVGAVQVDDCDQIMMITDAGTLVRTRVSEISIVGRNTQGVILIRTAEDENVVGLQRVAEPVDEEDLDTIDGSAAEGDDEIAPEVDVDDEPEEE

The assay concerns the target S. aureus GyrB ATPase (Staphylococcus aureus, UniProt P0A0K8). The assay can be described thus: biochemical. Conditions: compound at 1 μM; one value per test if tested more than once; read-out: % Inhibition of S. aureus GyrB ATPase. In short, it runs like this:
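IC50 values derive from 10-point titrations of compound (in DMSO). Phosphate formed from 250 μM ATP was quantified by acidic molybdate/malachite green after quenching.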
For `CCNC(=O)Nc1cc(-c2nc(C(F)(F)F)cs2)c(-c2ccc3c(c2)c(=O)c(C(=O)O)cn3[C@@H](CO)C(C)C)cn1` [Example 85, (R)-6-(6-(3-ethylureido)-4-(4-(trifluoromethyl)thiazol-2-yl)pyridin-3-yl)-1-(1-hydroxy-3-methylbutan-2-yl)-4-oxo-1,4-dihydroquinoline-3-carboxylic acid], the inhibition at 1 µM amounted to 96%. As for `CCNC(=O)Nc1cc(-c2nc(C(F)(F)F)cs2)c(-c2ccc3c(c2)c(=O)c(C(=O)O)cn3Cc2ccncc2)cn1` [Example 124, 6-(6-(3-ethylureido)-4-(4-(trifluoromethyl)thiazol-2-yl)pyridin-3-yl)-4-oxo-1-(pyridin-4-ylmethyl)-1,4-dihydroquinoline-3-carboxylic acid], the figure is 87%. For `CCNC(=O)Nc1cc(-c2nc(C(F)(F)F)cs2)c(-c2ccc3c(c2)c(=O)c(C(=O)NCCCO)cn3C(COC)COC)cn1` [Example 149, 1-(1,3-dimethoxypropan-2-yl)-6-(6-(3-ethylureido)-4-(4-(trifluoromethyl)thiazol-2-yl)pyridin-3-yl)-N-(3-hydroxypropyl)-4-oxo-1,4-dihydroquinoline-3-carboxamide] the value was 93%; for `CCNC(=O)Nc1cc(-c2nc(C(F)(F)F)cs2)c(-c2ccc3c(c2)c(=O)c(C(=O)O)cn3[C@H]2CCN(C)C2)cn1` [Example 312, (S)-6-(6-(3-ethylureido)-4-(4-(trifluoromethyl)thiazol-2-yl)pyridin-3-yl)-1-(1-methylpyrrolidin-3-yl)-4-oxo-1,4-dihydroquinoline-3-carboxylic acid], 105%; for `CCNC(=O)Nc1cc(-c2nc(C(F)(F)F)cs2)c(-c2ccc3c(=O)c(C(=O)NCCO)cn(Cc4ccccc4)c3c2)cn1` [Example 354, 1-Benzyl-7-{6-[(ethylcarbamoyl)amino]-4-[4-(trifluoromethyl)-1,3-thiazol-2-yl]pyridin-3-yl}-N-(2-hydroxyethyl)-4-oxo-1,4-dihydroquinoline-3-carboxamide], 98%.

`CCNC(=O)Nc1cc(-c2nc(C(F)(F)F)cs2)c(-c2ccc3c(c2)c(=O)c(C(=O)O)cn3Cc2cn(C)cn2)cn1` [Example 125, 6-(6-(3-ethylureido)-4-(4-(trifluoromethyl)thiazol-2-yl)pyridin-3-yl)-1-((1-methyl-1H-imidazol-4-yl)methyl)-4-oxo-1,4-dihydroquinoline-3-carboxylic acid]: the inhibition at 1 µM was determined as 93%.

Take `CCNC(=O)Nc1cc(-c2nc(C(F)(F)F)cs2)c(-c2ccc3c(c2)c(=O)c(C(=O)O)cn3C[C@H]2CCN(CC)C2)cn1` [Example 249, (S)-1-((1-ethylpyrrolidin-3-yl)methyl)-6-(6-(3-ethylureido)-4-(4-(trifluoromethyl)thiazol-2-yl)pyridin-3-yl)-4-oxo-1,4-dihydroquinoline-3-carboxylic acid]: the inhibition at 1 µM was 113%. Regarding `CCNC(=O)Nc1cc(-c2nc(C(F)(F)F)cs2)c(-c2ccc3c(c2)c(=O)c(C(=O)NC)cn3[C@H](CO)CC(C)C)cn1` [Example 96, (S)-6-(6-(3-ethylureido)-4-(4-(trifluoromethyl)thiazol-2-yl)pyridin-3-yl)-1-(1-hydroxy-4-methylpentan-2-yl)-N-methyl-4-oxo-1,4-dihydroquinoline-3-carboxamide], the inhibition at 1 µM is 95%. For the compound `CCCNC(=O)Nc1cc(-c2nc(C(F)(F)F)cs2)c(-c2ccc3c(c2)c(=O)c(C(=O)O)cn3[C@H](CO)C(C)(C)C)cn1` [Example 84, (S)-1-(1-hydroxy-3,3-dimethylbutan-2-yl)-4-oxo-6-(6-(3-propylureido)-4-(4-(trifluoromethyl)thiazol-2-yl)pyridin-3-yl)-1,4-dihydroquinoline-3-carboxylic acid], the inhibition at 1 µM was determined as 95%. Regarding `CCNC(=O)Nc1cc(-c2nc(C(F)(F)F)cs2)c(-c2ccc3c(c2)c(=O)c(C(=O)O)cn3[C@H](CO)C(C)C)cn1` [Example 82, 6-{6-[(ethylcarbamoyl)amino]-4-[4-(trifluoromethyl)-1,3-thiazol-2-yl]pyridin-3-yl}-1-[(1S)-1-(hydroxymethyl)-2-methylpropyl]-4-oxo-1,4-dihydroquinoline-3-carboxylic acid], the inhibition at 1 µM is 111%.

With `CCNC(=O)Nc1cc(-c2nc(C(F)(F)F)cs2)c(-c2ccc3c(c2)c(=O)c(C(=O)O)cn3CC2CCN(CC3CCCO3)C2)cn1` (centres unmarked) [Example 307, 6-(6-(3-ethylureido)-4-(4-(trifluoromethyl)thiazol-2-yl)pyridin-3-yl)-4-oxo-1-((1-((tetrahydrofuran-2-yl)methyl)pyrrolidin-3-yl)methyl)-1,4-dihydroquinoline-3-carboxylic acid], the inhibition at 1 µM stood at 105%.

As for `CCNC(=O)Nc1cc(-c2nc(C(F)(F)F)cs2)c(-c2ccc3c(=O)c(C(=O)NCCN4CCOCC4)cn(CCC(C)C)c3c2)cn1` [Example 339, 7-{6-[(ethylcarbamoyl)amino]-4-[4-(trifluoromethyl)-1,3-thiazol-2-yl]pyridin-3-yl}-1-(3-methylbutyl)-N-[2-(morpholin-4-yl)ethyl]-4-oxo-1,4-dihydroquinoline-3-carboxamide], the inhibition at 1 µM was found to be 109%. As for `CCNC(=O)Nc1cc(-c2nc(C(F)(F)F)cs2)c(-c2ccc3c(c2)c(=O)c(C(=O)O)cn3[C@H](CC)CO)cn1` [Example 79, (R)-6-(6-(3-ethylureido)-4-(4-(trifluoromethyl)thiazol-2-yl)pyridin-3-yl)-1-(1-hydroxybutan-2-yl)-4-oxo-1,4-dihydroquinoline-3-carboxylic acid], the figure is 97%; as for `CCNC(=O)Nc1cc(-c2nc(C(F)(F)F)cs2)c(-c2ccc3c(c2)c(=O)c(C(=O)O)cn3[C@H]2CNC[C@@H]2O)cn1` (relative stereo) [Example 310, trans 6-(6-(3-ethylureido)-4-(4-(trifluoromethyl)thiazol-2-yl)pyridin-3-yl)-1-(4-hydroxypyrrolidin-3-yl)-4-oxo-1,4-dihydroquinoline-3-carboxylic acid], 106%; as for `CC(C)NC(=O)Nc1cc(-c2nc(C(F)(F)F)cs2)c(-c2ccc3c(c2)c(=O)c(C(=O)NCCN(C)C)cn3CCN2CCN(C)CC2)cn1` [Example 227, N-(2-(dimethylamino)ethyl)-6-(6-(3-isopropylureido)-4-(4-(trifluoromethyl)thiazol-2-yl)pyridin-3-yl)-1-(2-(4-methylpiperazin-1-yl)ethyl)-4-oxo-1,4-dihydroquinoline-3-carboxamide], 91%. `CCNC(=O)Nc1cc(-c2nc(C(F)(F)F)cs2)c(-c2ccc3c(=O)c(C(=O)NCCO)cn(CC(C)C)c3c2)cn1` [Example 342, 7-{6-[(ethylcarbamoyl)amino]-4-[4-(trifluoromethyl)-1,3-thiazol-2-yl]pyridin-3-yl}-N-(2-hydroxyethyl)-1-(2-methylpropyl)-4-oxo-1,4-dihydroquinoline-3-carboxamide]: the inhibition at 1 µM was determined as 99%. As to `CCNC(=O)Nc1cc(-c2nc(C(F)(F)F)cs2)c(-c2ccc3c(c2)c(=O)c(C(=O)O)cn3[C@H]2CCCC[C@@H]2O)cn1` [Example 279, 6-(6-(3-ethylureido)-4-(4-(trifluoromethyl)thiazol-2-yl)pyridin-3-yl)-1-((1S,2S)-2-hydroxycyclohexyl)-4-oxo-1,4-dihydroquinoline-3-carboxylic acid], the inhibition at 1 µM stood at 103%. As for `CCCNC(=O)Nc1cc(-c2nc(C(F)(F)F)cs2)c(-c2ccc3c(c2)c(=O)c(C(=O)NCCN(C)C)cn3CCC2CCOCC2)cn1` [Example 232, N-(2-(dimethylamino)ethyl)-4-oxo-6-(6-(3-propylureido)-4-(4-(trifluoromethyl)thiazol-2-yl)pyridin-3-yl)-1-(2-(tetrahydro-2H-pyran-4-yl)ethyl)-1,4-dihydroquinoline-3-carboxamide], the inhibition at 1 µM came out at 98%. Consider `CC(C)NC(=O)Nc1cc(-c2nc(C(F)(F)F)cs2)c(-c2ccc3c(c2)c(=O)c(C(=O)NCCO)cn3CCC2CCN(C)CC2)cn1` [Example 216, N-(2-hydroxyethyl)-6-(6-(3-isopropylureido)-4-(4-(trifluoromethyl)thiazol-2-yl)pyridin-3-yl)-1-(2-(1-methylpiperidin-4-yl)ethyl)-4-oxo-1,4-dihydroquinoline-3-carboxamide], for which the inhibition at 1 µM turned out to be 109%. For the compound `CCNC(=O)Nc1cc(-c2nc(C(F)(F)F)cs2)c(-c2ccc3c(c2)c(=O)c(C(=O)NC(COC)COC)cn3C2CC2)cn1` [Example 327, 1-Cyclopropyl-N-(1,3-dimethoxy-propan-2-yl)-6-(6-(3-ethylureido)-4-(4-(trifluoromethyl)thiazol-2-yl)pyridin-3-yl)-4-oxo-1,4-dihydroquinoline-3-carboxamide], the inhibition at 1 µM is 100%. For `CCNC(=O)Nc1cc(-c2nc(-c3ccccc3)cs2)c(-c2ccc3c(=O)c(C(=O)OCC)cn(CC)c3c2)cn1` [Example 44, ethyl 1-ethyl-7-(6-(3-ethylureido)-4-(4-phenylthiazol-2-yl)pyridin-3-yl)-4-oxo-1,4-dihydroquinoline-3-carboxylate] the value was 98%; for `CCNC(=O)Nc1cc(-c2nc(C(F)(F)F)cs2)c(-c2ccc3c(=O)c(C(=O)NCCN4CCOCC4)cn(CC)c3c2)cn1` [Example 333, 1-Ethyl-7-{6-[(ethylcarbamoyl)amino]-4-[4-(trifluoromethyl)-1,3-thiazol-2-yl]pyridin-3-yl}-N-[2-(morpholin-4-yl)ethyl]-4-oxo-1,4-dihydroquinoline-3-carboxamide], 106%. In the case of `CCCn1cc(C(=O)NC)c(=O)c2ccc(-c3cnc(NC(=O)NCC)cc3-c3nc(C(F)(F)F)cs3)cc21` [Example 347, 7-{6-[(ethylcarbamoyl)amino]-4-[4-(trifluoromethyl)-1,3-thiazol-2-yl]pyridin-3-yl}-N-methyl-4-oxo-1-propyl-1,4-dihydroquinoline-3-carboxamide], the inhibition at 1 µM stood at 100%.
